The values below are quoted from earlier work in US20060058387A1, “Composition and method for treating skin conditions” (priority 2004, published 2006).

For data set [1] the following is noted: children, dosage intakes of 200-800 mg/kg.
A further data set concerns interstitial cystitis. The note with it: bladder instillations of a 50% aqueous solution.

For the compound `C[N+](C)(C)CC(O)CC(=O)[O-]` (stereo not drawn) [carnitin, γ-Trimethyl-β-hydroxybutyrobetain], in data set [1], the side effects entry was “No side effects were observed”.
As to `CC1=C(/C=C/C(C)=C/C=C/C(C)=C/C(=O)O)C(C)(C)CCC1` [tretinoin, all-trans retinoic acid], where the note is “in vivo”, the “binding to plasma proteins” value is “highly bound” and the terminal elimination half-life was 30 to 120 min. Also, the oral bioavailability entry (oral) is “about 50%”. The “time to peak plasma concentrations” value (oral administration) was 1 to 2 h.
Take Sulphinyl-bis-methane [DMSO]: in the data set with interstitial cystitis, the “effect on symptoms of interstitial cystitis” value is “appear to alleviate symptoms”.
